Publication PMC8611036, “An integrated method for optimized identification of effective natural inhibitors against SARS-CoV-2 3CLpro” (Scientific Reports, 2021)

target: SARS-CoV-2 3CLpro (Severe acute respiratory syndrome coronavirus 2, UniProt P0DTD1); conditions: SARS-CoV pIC50 multiplied by similarity index (SI), training set compounds

SMILES	SI*pIC50
Cc1oc(C(C)(C)C)cc1-c1cc(NS(=O)(=O)c2cccs2)[nH]n1 [CMP136]	5.152
O=C(Oc1ccc(S(=O)(=O)c2ccc(OC(=O)C(Cl)=C(Cl)Cl)cc2)cc1)C(Cl)=C(Cl)Cl [CMP137]	6.198
O=C(O)c1ccc(S(=O)(=O)c2cc(Br)c(O)c(Br)c2)cc1 [CMP138]	4.948
CCOC(=O)C(=CNc1ccc(S(=O)(=O)c2ccc(/N=C/C(C(=O)OCC)=C(\O)OCC)cc2)cc1)C(=O)OCC [CMP139]	4.6468
O=C(Oc1cncc(Cl)c1)c1cc2ccccc2s1 [CMP140]	7.152
Nc1ncc(S(=O)(=O)c2ccc(Cl)cc2)c(N)n1 [CMP141]	5.374
CC1(C)CC(=O)c2c(NCc3ccco3)sc(C#N)c2C1 [CMP142]	4.948
CCC(C)c1ccc(N(C(=O)c2ccco2)C(C(=O)NC2CCCC2)c2cccnc2)cc1 (stereo not shown) [CMP144]	5.809
O=C1Nc2ccc(S(=O)(=O)N3CCCCC3)cc2C1=O [CMP145]	5.503
CC1CCN(S(=O)(=O)c2ccc3c(c2)C(=O)C(=O)N3)CC1 [CMP146]	6.08
CC(=O)c1ccccc1S(=O)(=O)c1ccccc1C(=O)O [CMP147]	4.948
O=C1C(=O)N(Cc2ccccc2)c2ccc(S(=O)(=O)N3CCOCC3)cc21 [CMP148]	5.01
CN1C(=O)C(=O)c2cc(S(=O)(=O)N3CCOCC3)ccc21 [CMP149]	5.156
COc1cc(O)c2c(=O)cc(-c3ccc(OC)c(-c4c(O)cc(O)c5c(=O)cc(-c6ccc(O)cc6)oc45)c3)oc2c1 [CMP150]	4.6468
O=c1cc(-c2ccc(O)cc2)oc2cc(O)cc(O)c12 [CMP152]	3.704
O=c1cc(-c2ccc(O)c(O)c2)oc2cc(O)cc(O)c12 [CMP153]	4.851
O=c1cc(-c2ccc(O)c(-c3c(O)cc(O)c4c(=O)cc(-c5ccc(O)cc5)oc34)c2)oc2cc(O)cc(O)c12 [CMP154]	5.233
COc1ccc(-c2cc(=O)c3c(O)cc(O)c(-c4cc(-c5cc(=O)c6c(O)cc(OC)cc6o5)ccc4OC)c3o2)cc1 [CMP155]	4.568
O=C(Oc1cncc(Cl)c1)c1ccco1 [CMP158]	7.374
O=C1Nc2ccc(S(=O)(=O)N3CCOCC3)cc2C1=O [CMP159]	5.05
CCOC(=O)/C=C/[C@H](C[C@@H]1CCNC1=O)NC(=O)[C@H](CC=C(C)C)CC(=O)[C@@H](NC(=O)c1cc(C)on1)C(C)C [CMP160]	4.307
Cc1c(O)c(O)cc2c1CC=C1[C@@]2(C)CC[C@@]2(C)[C@@H]3C[C@](C)(C(=O)O)CC[C@]3(C)CC[C@]12C [CMP161]	4.816

test system: SARS-CoV 3CLpro; format: biochemical; conditions: activity class by pIC50 threshold 6

SMILES	Inact.(<6)/Act.(>=6)
Cc1oc(C(C)(C)C)cc1-c1cc(NS(=O)(=O)c2cccs2)[nH]n1 [CMP136]	Inact. (Inact.(<6))
O=C(Oc1ccc(S(=O)(=O)c2ccc(OC(=O)C(Cl)=C(Cl)Cl)cc2)cc1)C(Cl)=C(Cl)Cl [CMP137]	Act. (Act.(>=6))
O=C(O)c1ccc(S(=O)(=O)c2cc(Br)c(O)c(Br)c2)cc1 [CMP138]	Inact. (Inact.(<6))
CCOC(=O)C(=CNc1ccc(S(=O)(=O)c2ccc(/N=C/C(C(=O)OCC)=C(\O)OCC)cc2)cc1)C(=O)OCC [CMP139]	Inact. (Inact.(<6))
O=C(Oc1cncc(Cl)c1)c1cc2ccccc2s1 [CMP140]	Act. (Act.(>=6))
Nc1ncc(S(=O)(=O)c2ccc(Cl)cc2)c(N)n1 [CMP141]	Inact. (Inact.(<6))
CC1(C)CC(=O)c2c(NCc3ccco3)sc(C#N)c2C1 [CMP142]	Inact. (Inact.(<6))
CCC(C)c1ccc(N(C(=O)c2ccco2)C(C(=O)NC2CCCC2)c2cccnc2)cc1 (stereo not shown) [CMP144]	Inact. (Inact.(<6))
O=C1Nc2ccc(S(=O)(=O)N3CCCCC3)cc2C1=O [CMP145]	Inact. (Inact.(<6))
CC1CCN(S(=O)(=O)c2ccc3c(c2)C(=O)C(=O)N3)CC1 [CMP146]	Inact. (Inact.(<6))
CC(=O)c1ccccc1S(=O)(=O)c1ccccc1C(=O)O [CMP147]	Inact. (Inact.(<6))
O=C1C(=O)N(Cc2ccccc2)c2ccc(S(=O)(=O)N3CCOCC3)cc21 [CMP148]	Inact. (Inact.(<6))
CN1C(=O)C(=O)c2cc(S(=O)(=O)N3CCOCC3)ccc21 [CMP149]	Inact. (Inact.(<6))
COc1cc(O)c2c(=O)cc(-c3ccc(OC)c(-c4c(O)cc(O)c5c(=O)cc(-c6ccc(O)cc6)oc45)c3)oc2c1 [CMP150]	Inact. (Inact.(<6))
O=c1cc(-c2ccc(O)cc2)oc2cc(O)cc(O)c12 [CMP152]	Inact. (Inact.(<6))
O=c1cc(-c2ccc(O)c(O)c2)oc2cc(O)cc(O)c12 [CMP153]	Inact. (Inact.(<6))
O=c1cc(-c2ccc(O)c(-c3c(O)cc(O)c4c(=O)cc(-c5ccc(O)cc5)oc34)c2)oc2cc(O)cc(O)c12 [CMP154]	Inact. (Inact.(<6))
COc1ccc(-c2cc(=O)c3c(O)cc(O)c(-c4cc(-c5cc(=O)c6c(O)cc(OC)cc6o5)ccc4OC)c3o2)cc1 [CMP155]	Inact. (Inact.(<6))
O=C(Oc1cncc(Cl)c1)c1ccco1 [CMP158]	Act. (Act.(>=6))
O=C1Nc2ccc(S(=O)(=O)N3CCOCC3)cc2C1=O [CMP159]	Inact. (Inact.(<6))
CCOC(=O)/C=C/[C@H](C[C@@H]1CCNC1=O)NC(=O)[C@H](CC=C(C)C)CC(=O)[C@@H](NC(=O)c1cc(C)on1)C(C)C [CMP160]	Inact. (Inact.(<6))
Cc1c(O)c(O)cc2c1CC=C1[C@@]2(C)CC[C@@]2(C)[C@@H]3C[C@](C)(C(=O)O)CC[C@]3(C)CC[C@]12C [CMP161]	Inact. (Inact.(<6))

test system: SARS-CoV 3CLpro; conditions: SARS-CoV 3CLpro inhibitors (training set), from literature IC50; ref: per compound; cited from earlier work

SMILES	pIC50
Cc1oc(C(C)(C)C)cc1-c1cc(NS(=O)(=O)c2cccs2)[nH]n1 [CMP136]	5
O=C(Oc1ccc(S(=O)(=O)c2ccc(OC(=O)C(Cl)=C(Cl)Cl)cc2)cc1)C(Cl)=C(Cl)Cl [CMP137]	6.046
O=C(O)c1ccc(S(=O)(=O)c2cc(Br)c(O)c(Br)c2)cc1 [CMP138]	4.796
CCOC(=O)C(=CNc1ccc(S(=O)(=O)c2ccc(/N=C/C(C(=O)OCC)=C(\O)OCC)cc2)cc1)C(=O)OCC [CMP139]	4.495
O=C(Oc1cncc(Cl)c1)c1cc2ccccc2s1 [CMP140]	7
Nc1ncc(S(=O)(=O)c2ccc(Cl)cc2)c(N)n1 [CMP141]	5.222
CC1(C)CC(=O)c2c(NCc3ccco3)sc(C#N)c2C1 [CMP142]	4.796
CCC(C)c1ccc(N(C(=O)c2ccco2)C(C(=O)NC2CCCC2)c2cccnc2)cc1 (stereo not shown) [CMP144]	5.658
O=C1Nc2ccc(S(=O)(=O)N3CCCCC3)cc2C1=O [CMP145]	5.352
CC1CCN(S(=O)(=O)c2ccc3c(c2)C(=O)C(=O)N3)CC1 [CMP146]	5.928
CC(=O)c1ccccc1S(=O)(=O)c1ccccc1C(=O)O [CMP147]	4.796
O=C1C(=O)N(Cc2ccccc2)c2ccc(S(=O)(=O)N3CCOCC3)cc21 [CMP148]	4.858
CN1C(=O)C(=O)c2cc(S(=O)(=O)N3CCOCC3)ccc21 [CMP149]	5.004
COc1cc(O)c2c(=O)cc(-c3ccc(OC)c(-c4c(O)cc(O)c5c(=O)cc(-c6ccc(O)cc6)oc45)c3)oc2c1 [CMP150]	4.495
O=c1cc(-c2ccc(O)cc2)oc2cc(O)cc(O)c12 [CMP152]	3.552
O=c1cc(-c2ccc(O)c(O)c2)oc2cc(O)cc(O)c12 [CMP153]	4.699
O=c1cc(-c2ccc(O)c(-c3c(O)cc(O)c4c(=O)cc(-c5ccc(O)cc5)oc34)c2)oc2cc(O)cc(O)c12 [CMP154]	5.081
COc1ccc(-c2cc(=O)c3c(O)cc(O)c(-c4cc(-c5cc(=O)c6c(O)cc(OC)cc6o5)ccc4OC)c3o2)cc1 [CMP155]	4.416
O=C(Oc1cncc(Cl)c1)c1ccco1 [CMP158]	7.222
O=C1Nc2ccc(S(=O)(=O)N3CCOCC3)cc2C1=O [CMP159]	4.898
CCOC(=O)/C=C/[C@H](C[C@@H]1CCNC1=O)NC(=O)[C@H](CC=C(C)C)CC(=O)[C@@H](NC(=O)c1cc(C)on1)C(C)C [CMP160]	4.1549
Cc1c(O)c(O)cc2c1CC=C1[C@@]2(C)CC[C@@]2(C)[C@@H]3C[C@](C)(C(=O)O)CC[C@]3(C)CC[C@]12C [CMP161]	4.664

same assay, conditions: SARS-CoV 3CLpro inhibitors (training set), literature values; ref: per compound; cited from earlier work

SMILES	IC50 [µM]
Cc1oc(C(C)(C)C)cc1-c1cc(NS(=O)(=O)c2cccs2)[nH]n1 [CMP136]	10
O=C(Oc1ccc(S(=O)(=O)c2ccc(OC(=O)C(Cl)=C(Cl)Cl)cc2)cc1)C(Cl)=C(Cl)Cl [CMP137]	0.9
O=C(O)c1ccc(S(=O)(=O)c2cc(Br)c(O)c(Br)c2)cc1 [CMP138]	16
CCOC(=O)C(=CNc1ccc(S(=O)(=O)c2ccc(/N=C/C(C(=O)OCC)=C(\O)OCC)cc2)cc1)C(=O)OCC [CMP139]	32
O=C(Oc1cncc(Cl)c1)c1cc2ccccc2s1 [CMP140]	0.1
Nc1ncc(S(=O)(=O)c2ccc(Cl)cc2)c(N)n1 [CMP141]	6
CC1(C)CC(=O)c2c(NCc3ccco3)sc(C#N)c2C1 [CMP142]	16
CCC(C)c1ccc(N(C(=O)c2ccco2)C(C(=O)NC2CCCC2)c2cccnc2)cc1 (stereo not shown) [CMP144]	2.2
O=C1Nc2ccc(S(=O)(=O)N3CCCCC3)cc2C1=O [CMP145]	4.45
CC1CCN(S(=O)(=O)c2ccc3c(c2)C(=O)C(=O)N3)CC1 [CMP146]	1.18
CC(=O)c1ccccc1S(=O)(=O)c1ccccc1C(=O)O [CMP147]	16
O=C1C(=O)N(Cc2ccccc2)c2ccc(S(=O)(=O)N3CCOCC3)cc21 [CMP148]	13.9
CN1C(=O)C(=O)c2cc(S(=O)(=O)N3CCOCC3)ccc21 [CMP149]	9.91
COc1cc(O)c2c(=O)cc(-c3ccc(OC)c(-c4c(O)cc(O)c5c(=O)cc(-c6ccc(O)cc6)oc45)c3)oc2c1 [CMP150]	32
O=c1cc(-c2ccc(O)cc2)oc2cc(O)cc(O)c12 [CMP152]	281
O=c1cc(-c2ccc(O)c(O)c2)oc2cc(O)cc(O)c12 [CMP153]	20
O=c1cc(-c2ccc(O)c(-c3c(O)cc(O)c4c(=O)cc(-c5ccc(O)cc5)oc34)c2)oc2cc(O)cc(O)c12 [CMP154]	8.3
COc1ccc(-c2cc(=O)c3c(O)cc(O)c(-c4cc(-c5cc(=O)c6c(O)cc(OC)cc6o5)ccc4OC)c3o2)cc1 [CMP155]	38.4
O=C(Oc1cncc(Cl)c1)c1ccco1 [CMP158]	0.06
O=C1Nc2ccc(S(=O)(=O)N3CCOCC3)cc2C1=O [CMP159]	12.7
CCOC(=O)/C=C/[C@H](C[C@@H]1CCNC1=O)NC(=O)[C@H](CC=C(C)C)CC(=O)[C@@H](NC(=O)c1cc(C)on1)C(C)C [CMP160]	70
Cc1c(O)c(O)cc2c1CC=C1[C@@]2(C)CC[C@@]2(C)[C@@H]3C[C@](C)(C(=O)O)CC[C@]3(C)CC[C@]12C [CMP161]	21.7
